Assay results published in US11053253B2, “Macrocyclic compounds for treatment of medical disorders” (Achillion Pharmaceuticals, Inc., priority 2017, dated 2021).

Target: Human Factor D (Homo sapiens (Human), UniProt P00746)
Test: Human Factor D Assay
Type: biochemical
Details: Human Factor D 80 nM, substrate Z-L-Lys-SBzl, DTNB, A405; read-out: IC50 (Stars)
How it was run: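 Serum-purified enzyme (80 nM final) was preincubated with compound 5 min at room temperature in 50 mM Tris, 1M NaCl, pH 7.5. Z-L-Lys-SBzl and DTNB ([…] each, final) were added and A405 followed every 30 s for 30 min; IC50 from nonlinear regression of reaction rates.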

Chain of Human Factor D (P00746 26-253): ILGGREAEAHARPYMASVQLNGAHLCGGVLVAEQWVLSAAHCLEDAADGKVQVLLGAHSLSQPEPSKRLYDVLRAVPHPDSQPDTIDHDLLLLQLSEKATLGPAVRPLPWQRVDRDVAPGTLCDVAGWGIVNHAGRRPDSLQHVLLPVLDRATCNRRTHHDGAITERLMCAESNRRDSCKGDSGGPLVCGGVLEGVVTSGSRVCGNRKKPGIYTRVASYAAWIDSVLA

| SMILES | IC50 [nM] |
| --- | --- |
| CC(=O)c1nn(CC(=O)N2[C@H]3C[C@@]4(CNC(=O)C(C)(C)CC=CCOCc5ccc(Br)nc5NC3=O)C[C@@H]24)c2cnc(-c3cnc(C)nc3)cc12 [Compound T-114] | < 1000 |
| CC(=O)c1nn(CC(=O)N2[C@H]3C[C@@]4(CNC(=O)C(C)(C)CC=CCOCc5ccc(Br)nc5NC3=O)C[C@@H]24)c2ccc(-c3cnc(C)nc3)cc12 [Compound T-115] | < 1000 |
| CC(=O)c1nn(CC(=O)N2[C@H]3C[C@@]4(CNC(=O)C(C)(C)CCCOCc5ccc(Br)nc5NC3=O)C[C@@H]24)c2cnc(-c3cnc(C)nc3)cc12 [Compound T-116] | < 1000 |
| CC(=O)c1nn(CC(=O)N2[C@H]3C[C@@]4(CNC(=O)C(C)(C)CCCCOCc5ccc(Br)nc5NC3=O)C[C@@H]24)c2ccc(-c3cnc(C)nc3)cc12 [Compound T-117] | < 1000 |
| CC(=O)c1nn(CC(=O)N2[C@H]3C[C@@]4(CNC(=O)C(C)(C)CCCCOCc5ccc(Br)nc5NC3=O)C[C@@H]24)c2cnc(-c3cnc(C)nc3)cc12 [Compound T-118] | < 1000 |
| CC(=O)c1nn(CC(=O)N2[C@H]3C[C@@]4(CNC(=O)C(F)(F)CCCCOCc5ccc(Br)nc5NC3=O)C[C@@H]24)c2cnc(-c3cnc(C)nc3)cc12 [Compound T-119] | < 1000 |
| CC(=O)c1nn(CC(=O)N2[C@H]3C[C@@]4(CNC(=O)C(F)(F)CCCCOCc5ccc(Br)nc5NC3=O)C[C@@H]24)c2ccc(-c3cnc(C)nc3)cc12 [Compound T-120] | < 1000 |
| CC(=O)c1nn2c3c(cc(-c4cnc(C)nc4)cc13)C(O)C(O)CCCCCN(C)C[C@@]13C[C@@H](C(=O)Nc4nc(Br)ccc4C)N(C(=O)C2)[C@@H]1C3 (stereo partly shown) [Compound T-121] | < 1000 |
| CC(=O)c1nn2c3c(cc(-c4cnc(C)nc4)cc13)CCCCCCCN(C)C[C@@]13C[C@@H](C(=O)Nc4nc(Br)ccc4C)N(C(=O)C2)[C@@H]1C3 [Compound T-122] | 1000 to 10000 |
| CC(=O)c1nn(CC(=O)N2[C@H]3C[C@]4(C[C@@H]24)CN2CCN(CCCOCc4ccc(Br)nc4NC3=O)CC2)c2ccc(-c3cnc(C)nc3)cc12 [Compound T-123] | 1000 to 10000 |
| CC(=O)c1nn2c3c(cc(-c4cnc(C)nc4)cc13)CCCCCC(=O)N(C)C[C@@]13C[C@@H](C(=O)Nc4nc(C(F)(F)F)ccc4C)N(C(=O)C2)[C@@H]1C3 [Compound T-125] | < 1000 |
| CC(=O)c1nn2c3c(nc(-c4cnc(C)nc4)cc13)C=CCCCC(=O)NC[C@@]13C[C@@H](C(=O)Nc4nc(C(F)(F)F)ccc4C)N(C(=O)C2)[C@@H]1C3 [Compound T-126] | < 1000 |
| CC(=O)c1nn2c3c(cc(-c4cnc(C)nc4)cc13)CC=CCCCC(=O)NC[C@]1(F)C[C@@H](C(=O)Nc3nc(C(F)(F)F)ccc3C)N(C1)C(=O)C2 [Compound T-127] | > 10000 |
| CC(=O)c1nn2c3c(cc(-c4cnc(C)nc4)cc13)CCCCCCC(=O)NC[C@]1(F)C[C@@H](C(=O)Nc3nc(C(F)(F)F)ccc3C)N(C1)C(=O)C2 [Compound T-128] | < 1000 |
| CC(=O)c1nn2c3c(cc(-c4cnc(C)nc4)cc13)CCCCCC(=O)NC[C@]1(F)C[C@@H](C(=O)Nc3nc(C(F)(F)F)ccc3C)N(C1)C(=O)C2 [Compound T-129] | 1000 to 10000 |
| CC(=O)c1nn(CC(=O)N2[C@H]3C[C@@]4(CNC(=O)C(C)(C)CCCOCc5ccc(Br)nc5NC3=O)C[C@@H]24)c2ccc(-c3cnc(C)nc3)cc12 [Compound T-130] | < 1000 |
| CC(=O)c1nn(CC(=O)N2[C@H]3C[C@@]4(CNC(=O)C(C)(C)C=CCOCc5ccc(Br)nc5NC3=O)C[C@@H]24)c2ccc(-c3cnc(C)nc3)cc12 [Compound T-131] | < 1000 |
| CC(=O)c1nn2c3c(nc(-c4cnc(C)nc4)cc13)CCCCCCC(=O)NC[C@@]13C[C@@H](C(=O)Nc4nc(C(F)(F)F)ccc4C)N(C(=O)C2)[C@@H]1C3 [Compound T-132] | < 1000 |
| Cc1ncc(-c2cc3c4c(c2)c(C#N)nn4CC(=O)N2[C@H](C(=O)Nc4nc(C(F)(F)F)ccc4C)C[C@@]4(CNC(=O)CCCC=CC3)C[C@@H]24)cn1 [Compound T-133] | < 1000 |
